Measured values as given in US10730886B2, “Compound having effect of inhibiting platelet aggregation and salt thereof, and composition for preventing or treating thrombotic diseases, containing same” (SHIN POONG PHARMACEUTICAL CO., LTD., priority 2015, dated 2020).
Read-outs that look alike come from different tables or passages of the source.

Experiments:
[1] = tested on: Human Platelet Rich Plasma (PRP); assay: Shear stress-induced platelet aggregation inhibition in human platelet rich plasma (PRP), cone-plate viscometer; format: cell-based; conditions: Homo sapiens, Platelet, Table 1 summary bins; concentration and matrix not given; read-out: Inhibitory effect of shear stress-induced platelet aggregation
Description: 1-1. Measurement of Platelet Aggregation Inhibitory Effect Using Human Platelet Rich Plasma (PRP)
Blood was collected from the veins of healthy male volunteers who had not taken any medication for more than 2 weeks. All related studies were conducted under the approval of the Seoul National University Institutional Review Board (IRB No. 1305/001-016). During the whole process of study the use of glass containers or glass pipettes was avoided, and the experiments were performed at room temperature. To separate platelet rich plasma (PRP), the blood was collected with 3.2% sodium citrate as an anticoagulant. The whole blood was centrifuged at 150 g for 15 minutes to obtain the supernatant (PRP), and the residue was centrifuged at 2,000 g for 20 minutes to obtain platelet poor plasma (PPP). The number of platelets of the PRP thus obtained was counted with an optical microscope using a hemacytometer. PRP was diluted with PPP so as to include 3×10^8 platelets per 1 ml, and then used in the experiments. PRP was put on a cone-plate viscometer (RotoVisco 1, Thermo Fischer Scientific, USA), and shear stress was applied to the PRP at 37° C. for 3 minutes at a shear rate of 10,800 s^−1. In order to evaluate candidate substances, prior to the induction of platelet aggregation, 598.8 μl of PRP was treated with 1.2 μl of 25 μM candidate substance and incubated at 37° C. for 3 minutes using a thermomixer. After applying the shear stress, 20 μl of PRP was fixed in 280 μl of a suspension buffer containing 0.5% glutaraldehyde (134 mM NaCl, 2.9 mM KCl, 1.0 mM MgCl2.6H2O, 10.0 mM HEPES, 5.0 mM dextrose, 12.0 mM NaHCO3, 0.34 mM Na2HPO4, 0.3% BSA, pH 7.4). Then, the number of single platelets in the suspension was counted using a hemacytometer. The degree of inhibition by the candidate substance was calculated according to the following formula (1). The degree of inhibition was determined by the method described below. No shear stress-applied group served as a control, and only shear stress-applied group served as positive control. Degree of inhibition (%)=[(1−A/B)×100]/[(1−A/C)×100] Formula 1
A: Number of single platelets in the shear stress-applied sample after treatment with candidate substance
B: Number of single platelets in the control group with no shear stress applied
C: Number of single platelets in the positive control group with only shear stress applied

[2] = tested on: carotid artery shear stress model; assay: Carotid artery shear stress model, amount of thrombus; format: in vivo, Sprague-Dawley rats; conditions: rat, twice a day for 3 days after operation
Description: Vehicle (0.5% methylcellulose), clopidogrel (8 mg/kg), aspirin (50 mg/kg) or a candidate substance was orally administered to male Sprague-Dawley rats (250 to 300 g). 2 hours after administration, the rats were anesthetized by ketamine/rompun (ketamine/xylazine) cocktail 0.1 ml/100 g. Except for the normal control group, the right cervical skin of the experimental animals was incised to expose the common carotid artery. A surgical tube with a length of 1 mm and an inside diameter of 0.58 mm was inserted into the exposed carotid artery and tied with a single thread. The exposed site and the operation site were treated with an anti-adhesion agent, and then sutured for the animals to recover. After the surgery, vehicle, clopidogrel, aspirin or a candidate substance was orally administered to the rats twice a day for 3 days. On the fourth day, 2 hours after the final administration, urethane (100 mg/300 μl/100 g) was administered intraperitoneally to the rats to induce anesthesia, and the operation site was opened to separate a total of 1 cm of the blood vessel, 5 mm above and 5 mm below the surgical tube. The separated blood vessel was perfused with 0.2 ml of 0.9% saline at 0.3 ml/min to remove the remaining blood, and then maintained in 1 ml of protein lysis buffer (NaOH 2 g, Na2CO3 0.1 g in 500 ml D.W). After collected, the blood vessel thrombus was double-boiled in boiling water together with the protein lysis buffer. 200 μl of the reaction solution (10 ml bicinchoninic acid solution+200 μl 4% aqueous solution of copper sulfate) was added to 10 μl of the heated thrombus, and the mixture was reacted at 37° C. for 30 minutes and quantified with an ELISA reader (562 nm).

Sprague-Dawley rats = assay: Bleeding side effect (tail bleeding time) after single oral administration; format: in vivo; conditions: rat, tail cut 1 hour after administration
Description: Male Sprague-Dawley rats (250 to 300 g) were fasted overnight and then were orally administered with the candidate substances at each concentration. After 1 hour, the rats were anesthetized by intraperitoneal injection of urethane (1.25 g/kg). The 3 mm portion of the tail tip of the rats was cut and carefully wiped every 30 seconds. Bleeding time was measured in […] until no more blood was drawn, and when the bleeding lasted longer than 30 minutes, the bleeding time was recorded as 30 minutes.

[3] = tested on: ADP-induced platelet aggregation, Human PRP; assay: ADP-induced platelet aggregation in human PRP (lumi-aggregometer); format: cell-based
Description: To investigate whether the candidate substance has inhibition selectivity for shear-stress-induced platelet aggregation, which is by a physical stimulus, […] experiment was conducted by activating platelets with physiological agonists—i.e., thrombin, collagen and ADP—to study the inhibitory effect of the candidate substance.
Human PRP (598.8 μl) was treated with 1.2 μl of the candidate substance per concentration (25, 100, 250 μM) and reacted at 37° C. for 3 minutes using a thermomixer. Then, PRP (495 μl) was put in the aggregometer cuvette and preincubated for 1 minute, followed by treatment with platelet aggregation-inducing reagent, thrombin (0.6-0.8 U/ml), collagen (2-5 μg/ml), or ADP (adenosine diphosphate, 15-20 μM) at the minimum concentration causing maximum aggregation. The degree of aggregation of the platelets was measured by a turbidity change using a lumi-aggregometer (Chrono-Log Co., USA). The turbidity of the PRP was considered as 0%, and the turbidity of the PPP was considered as 100%. During the measurement, the reaction mixture was continuously stirred at 1,000 rpm with a silicone-coated magnetic stir bar.

ICR mouse = conditions: male, in vivo, po, 7 days
Description: One hour after the last administration, the mice were anesthetized by breathing, and the 4 mm portion from the tail tip of the mice was cut. Then, the tail tip of the mice was immersed in a transparent 15-ml tube containing the pre-prepared 37° C. saline. The time when blood was not spread any more and the bleeding stopped was measured.

[4] = tested on: human liver cells (HepG2); assay: Cytotoxicity in human liver cells HepG2 (WST-1); format: cell-based; conditions: HepG2, 40 mM, control
Description: 5-3. Evaluation of Cytotoxicity of Candidate Substances Using Human Liver Cells
Experiments were conducted to evaluate cytotoxicity in human liver cells (HepG2). HepG2 cells, which are human liver carcinoma cell lines, were cultured in DMEM (Dulbecco's minimum essential medium) supplemented with 10% FBS (fetal bovine serum) and 1% Penicillin/Streptomycin at 37° C. and 5% CO2. The cells were cultured in a 48 well plate at 4×10^4 cells/well for 24 hours and then used in the experiments. The HepG2 cells were treated with the candidate substances (250 μM) for 18 hours, and then the medium was removed and WST-1 was added, followed by shading for 3 hours for reaction. After 3 hours, the supernatant was taken and absorbance was measured at 450 nm. Cell viability was calculated by comparing the absorbance measured after adding WST-1 to HepG2 cells not treated with the candidate substances. Acetaminophen (40 mM) was used as a control.

Row | SMILES | inhibition at 25 µM [1] [%] | also measured
1 | C#Cc1cccc(NC(=O)c2ccc(O)c(OC)c2)c1 [Example 16, N-(3-Ethynylphenyl)-4-hydroxy-3-methoxybenzamide] | ≥ 30 | –
2 | O=C(NC1CCSC1=O)c1cc(O)ccc1O (stereo not shown) [Example 26, 2,5-Dihydroxy-N-(2-oxotetrahydrothiophen-3-yl)benzamide] | 20 to 30 | –
3 | Cc1occc(=O)c1OC(=O)c1ccc(O)c(O)c1 [Example 10, 2-Methyl-4-oxo-4H-pyran-3-yl 3,4-dihydroxybenzoate] | 20 to 30 | –
4 | O=C(c1ccc(O)c(O)c1)N1CCC(OC(c2ccc(Cl)cc2)c2ccccn2)CC1 (stereo not shown) [Example 6, (4-((4-Chlorophenyl)(pyridin-2-yl)methoxy)piperidin-1-yl)(3,4-dihydroxyphenyl)methanone] | 20 to 30 | –
5 | O=C(c1ccc(O)c(O)c1)N1CCC(c2noc3ccc(F)cc23)CC1 [Example 2, (3,4-Dihydroxyphenyl)(4-(5-fluorobenzo[d]isoxazol-3-yl)piperidin-1-yl)methanone] | 20 to 30 | –
6 | COC(=O)[C@H](c1ccccc1Cl)N1CCc2sccc2C1 [Clopidogrel, clopidogrel, reference compound] | – | Amount of thrombus (mg, Mean ± SEM) ([2]; 8 mg/kg oral): 0.067 ± 0.004 mg; Bleeding time (Sprague-Dawley rats; 2.5 μM (so in the source)): 14.3 ± 1.6 min; Bleeding time (Sprague-Dawley rats; 25 μM (so in the source)): 26.8 ± 1.6 min; Degree of platelet aggregation (%, Mean ± SEM) ([3]; ADP 15-20 μM, compound 40 μM): 18.3 ± 3.4%; platelet aggregation compared with the group treated with ADP only ([3]; positive control, 40 μM): platelet aggregation was inhibited; Bleeding time (ICR mouse; 15 mg/kg): 35.4 ± 2.9 min; Bleeding time (min) (ICR mouse; 15 mg/kg): exceeded 35 min; bleeding time delayed, times compared with the control group (ICR mouse; 15 mg/kg): about 22 times
7 | CC(=O)Oc1ccccc1C(=O)O [Aspirin, aspirin, reference compound] | – | Amount of thrombus (mg, Mean ± SEM) ([2]; 50 mg/kg oral): 0.092 ± 0.007 mg; Bleeding time (Sprague-Dawley rats; 25 μM (so in the source)): 9.5 ± 0.8 min; Bleeding time (Sprague-Dawley rats; 100 μM (so in the source)): 15.1 ± 0.8 min; Bleeding time (ICR mouse; 100 mg/kg): 12.3 ± 0.7 min; Bleeding time (min) (ICR mouse; 100 mg/kg): exceeded 12 min; bleeding time delayed, times compared with the control group (ICR mouse; 100 mg/kg): about 7.6 times
8 | O=C(NCCCCCCCCCNC(=O)c1ccc(O)c(O)c1)c1ccc(O)c(O)c1 [Example 5, N,N′-(Nonan-1,9-diyl)bis(3,4-dihydroxybenzamide)] | 20 to 30 | –
9 | O=C(c1cc(O)ccc1O)N1CCC(OC(c2ccc(Cl)cc2)c2ccccn2)CC1 (stereo not shown) [Example 21, (4-((4-Chlorophenyl)(pyridin-2-yl)methoxy)piperidin-1-yl)(2,5-dihydroxyphenyl)methanone] | 20 to 30 | –
10 | O=C(c1ccc(O)c(O)c1)N1CCN(c2ccccc2)CC1 [Example 11, (3,4-Dihydroxyphenyl)(4-phenylpiperazin-1-yl)methanone] | ≥ 30 | –
11 | COc1ccc(CCNC(=O)c2cc(O)ccc2O)cc1OC [Example 24, N-(3,4-Dimethoxyphenethyl)-2,5-dihydroxybenzamide] | 20 to 30 | –
12 | O=C(NCCc1cccs1)c1cc(O)ccc1O [Example 25, 2,5-Dihydroxy-N-(2-(thiophen-2-yl)ethyl)benzamide] | 20 to 30 | –
13 | O=C(c1ccc(O)c(O)c1)N1CCC(O[C@@H](c2ccc(Cl)cc2)c2ccccn2)CC1 [Example 7, (S)-(4-((4-Chlorophenyl)(pyridin-2-yl)methoxy)piperidin-1-yl)(3,4-dihydroxyphenyl)methanone] | 20 to 30 | –
14 | COC(=O)[C@H](Cc1c[nH]c2ccccc12)NC(=O)c1ccc(O)c(O)c1 [Example 8, (S)-Methyl-2-(3,4-dihydroxybenzamido)-3-(1H-indol-3-yl)propanoate] | 20 to 30 | –
15 | CC(=O)Nc1ccc(O)cc1 [Acetaminophen, reference compound] | – | Cell vaibility (%) [4]: 35.3 ± 3.5%
16 | O=C(NC1CCSC1=O)c1ccc(O)c(O)c1 (stereo not shown) [Example 4, 3,4-Dihydroxy-N-(2-oxotetrahydrothiophen-3-yl)benzamide] | ≥ 30 | –
17 | O=C(NCC1CN(Cc2ccc(F)cc2)CCO1)c1ccc(O)c(O)c1 (stereo not shown) [Example 3, N-((4-(4-Fluorobenzyl)morpholin-2-yl)methyl)-3,4-dihydroxybenzamide] | ≥ 30 | –
18 | COc1cc(C(=O)N2CCC(OC(c3ccc(Cl)cc3)c3ccccn3)CC2)ccc1O (stereo not shown) [Example 18] | ≥ 30 | –
19 | CNC(=O)c1cc(Oc2ccc(NC(=O)c3ccc(O)c(OC)c3)cc2)ccn1 [Example 17, 4-(4-(4-Hydroxy-3-methoxybenzamido)phenoxy)-N-methylpicolinamide] | 20 to 30 | –
20 | CCCc1nn(C)c(C(N)=O)c1NC(=O)c1ccc(O)c(O)c1 [Example 9, 4-(3,4-Dihydroxybenzamido)-1-methyl-3-propyl-1H-pyrazole-5-carboxamide] | 20 to 30 | –
21 | O=C(NCC1CN(Cc2ccc(F)cc2)CCO1)c1cc(O)ccc1O (stereo not shown) [Example 22, N-((4-(4-Fluorobenzyl)morpholin-2-yl)methyl)-2,5-dihydroxybenzamide] | ≥ 30 | –
22 | COc1cc(C(=O)NCc2c(CO)cnc(C)c2O)ccc1O [Example 19, 4-Hydroxy-N-((3-hydroxy-5-(hydroxymethyl)-2-methylpyridin-4-yl)methyl)-3-methoxybenzamide] | 20 to 30 | –
